Measured values taken from patent US4100276A, “Fusidic acid derivatives” (priority 1975, dated 1978).
≈ marks a conversion by molar mass, not a printed value. Counter-ions that a name gives are not always drawn. Like-named read-outs stand apart in the source and are kept apart here.

Experiments:
[1] = tested on: Streptococcus sp. Leo EG2; experiment: In vitro activity, concentration required for 50% inhibition (Table A); format: cell-based
Staph. aureus Leo CJ145 = experiment: as above; format: cell-based; settings: for IC50: Staphylococcus aureus
[2] = tested on: Staphylococcus aureus Leo CC178B; experiment: as above; format: cell-based; settings: for IC50: LEOCC178B, read-out: Concentration required for 50% inhibition (IC50)
Corynebact. acnes Leo FN = experiment: as above; format: cell-based, Corynebacterium acnes; settings: for IC50: Cutibacterium acnes
[3] = tested on: Streptococcus pyogenes Leo EC; experiment: as above; format: cell-based
[4] = tested on: Staph. aureus, Leo CC178H2 (fusidic acid resistant strain); experiment: as above; format: cell-based; settings: Staphylococcus aureus, read-out: Concentration required for 50% inhibition (IC50)
[5] = tested on: Bacteroides fragilis, Leo JA2; experiment: as above; format: cell-based
Staphylococcus aureus = experiment: In vitro effect of combination with dihydro-fusidic acid, viable counts (Example 46); format: cell-based; settings: tubes a, b 10 μg/ml, tube c 5 + 5 μg/ml
Description: In vitro-effect of the combination of dihydro-fusidic acid and 3α,11α-dihydroxy-16β-phenylthio-fusida-13(17),24-dien-21- oic acid
To three tubes containing NIH broth was added:
a. The sodium salt of dihydro-fusidic acid (10 μg/ml).
b. The sodium salt of 3α,11α-dihydroxy-16-phenylthiofusida-13(17),24-dien-21-oic acid (10 μg/ml).
c. A mixture of the sodium salts of dihydro-fusidic acid (5 μg/ml) and 3α,11α-dihydroxy-16-phenylthiofusida-13(17),24-dien-21-oic acid (5 μg/ml).
The tubes were inoculated with Staphylococcus aureus to give 5.2 × 10^5 organisms per ml, incubated at 37° C for 96 hours, and the viable counts were determined.
A fourth tube was treated similarly without addition of any of the antibiotics and used as a control: […]

[6] = tested on: fusidic acid sensitive strain of Staph. aureus (Leo CC 178B); experiment: In vitro activity before and after a number of transfers (Example 48, Table C); format: cell-based; settings: for IC50: Staphylococcus aureus, Leo CC 178B (fusidic acid sensitive), overnight incubation
Description: (§1) In vitro activity of 3α,11α-dihydroxy-16β-ethylthiofusida-13(17),24-dien-21-oic acid against Staph. aureus before and after a number of transfers.
(§2) Serial dilutions of the compound above were made in liquid NIH-medium and then heavily inoculated with either a fusidic acid sensitive strain of Staph. aureus (Leo CC 178B) or with a fusidic acid resistant variant of the same strain (Leo CC 178A).
(§3) After every 72 to 96 hours transfers were made from the tubes containing the largest amount of the test compound showing full growth.

[7] = tested on: fusidic acid resistant variant of Staph. aureus (Leo CC 178A); experiment: as above; format: cell-based; settings: for IC50: Staphylococcus aureus
Description: as §1, §2, §3

[8] = Streptococcus sp. Leo EG2, read-out: Concentration required for 50% inhibition (IC50)
[9] = LEOCJ145, Staph. aureus Leo CJ145, read-out: Concentration required for 50% inhibition (IC50)
[10] = Staphylococcus aureus Leo CC178B
[11] = Corynebact. acnes Leo FN, read-out: Concentration required for 50% inhibition (IC50)
[12] = Streptococcus pyogenes Leo EC, read-out: Concentration required for 50% inhibition (IC50)
[13] = LEOJA2, Bacteroides fragilis Leo JA2, read-out: Concentration required for 50% inhibition (IC50)
[14] = Streptococcus, read-out: Concentration required for 50% inhibition (IC50), Streptococcus sp. Leo EG2
[15] = Streptococcus pyogenes, read-out: Concentration required for 50% inhibition (IC50), Streptococcus pyogenes Leo EC
[16] = Bacteroides fragilis, LEOJA2, read-out: Concentration required for 50% inhibition (IC50), Bacteroides fragilis Leo JA2
[17] = read-out: IC50 after 1st transfer
[18] = read-out: IC50 after 2nd transfer
[19] = read-out: IC50 after 3rd transfer
[20] = read-out: IC50 after 4th transfer
[21] = read-out: IC50 after 5th transfer
[22] = read-out: IC50 after 6th transfer

SMILES: CC(C)=CCCC(C(=O)O)C1=C2C[C@@H](O)[C@H]3[C@@]4(C)CC[C@@H](O)[C@@H](C)[C@@H]4CC[C@]3(C)[C@@]2(C)C[C@@H]1SC(C)(C)C (stereo partly shown) [Example 13]
- IC50 [1, 8]: 1.6 µg/mL (≈ 2.93 µM)
- IC50 (Staph. aureus Leo CJ145; [9]): 7.9 µg/mL (≈ 14.4 µM)
- IC50 [2, 10]: 1.6 µg/mL (≈ 2.93 µM)
- IC50 (Corynebact. acnes Leo FN; [11]): 0.5 µg/mL (≈ 0.914 µM)
- IC50 [3, 12]: 0.63 µg/mL (≈ 1.15 µM)
- IC50 [4]: 1.6 µg/mL (≈ 2.93 µM)
- IC50 [5, 13]: 2 µg/mL (≈ 3.66 µM)

SMILES: CC(=O)O[C@H]1C[C@@]2(C)[C@@H](C[C@@H](O)[C@H]3[C@@]4(C)CC[C@@H](O)[C@@H](C)[C@@H]4CC[C@@]32C)/C1=C(\CCCC(C)C)C(=O)O [sodium salt of dihydro-fusidic acid, reference compound]
- Viable counts after 6 1/2 hours (Staphylococcus aureus; 37° C, inoculum 5.2 × 10^5): 3.1 × 10^5 organisms per ml
- Viable counts after 2 hours (Staphylococcus aureus; 37° C, inoculum 5.2 × 10^5): 4.1 × 10^5 organisms per ml
- Viable counts after 24 hours (Staphylococcus aureus; 37° C, inoculum 5.2 × 10^5): 6.3 × 10^6 organisms per ml
- Resistance of surviving organisms to the compound / development of resistance (Staphylococcus aureus; 96 hours): resistant to dihydro-fusidic acid

SMILES: CC(C)=CCCC(C(=O)O)C1=C2C[C@@H](O)[C@H]3[C@@]4(C)CC[C@@H](O)[C@@H](C)[C@@H]4CC[C@]3(C)[C@@]2(C)C[C@@H]1SC(C)C (stereo partly drawn) [Example 31D, 3α,11α-dihydroxy-16β-isopropylthiofusida-13(17),24-dien-21-oic acid]
- Concentration required for 50% inhibition (IC50) ([1]; Streptococcus sp. Leo EG2): 0.79 µg/mL
- Concentration required for 50% inhibition (IC50) (Staph. aureus Leo CJ145; Staph. aureus Leo CJ145): 5.0 µg/mL
- Concentration required for 50% inhibition (IC50) [2, 10]: 1.6 µg/mL
- Concentration required for 50% inhibition (IC50) (Corynebact. acnes Leo FN; Corynebact. acnes Leo FN): 1.6 µg/mL
- Concentration required for 50% inhibition (IC50) ([3]; Streptococcus pyogenes Leo EC): 0.63 µg/mL

SMILES: CC(C)=CCCC(C(=O)O)C1=C2C[C@@H](O)[C@H]3[C@@]4(C)CC[C@@H](O)[C@@H](C)[C@@H]4CC[C@]3(C)[C@@]2(C)C[C@@H]1SCc1ccco1 (stereo partly shown) [Example 23]
- IC50 [1, 8]: 1.6 µg/mL (≈ 2.8 µM)
- IC50 (Staph. aureus Leo CJ145; [9]): 7.9 µg/mL (≈ 13.8 µM)
- IC50 [2, 10]: 1.6 µg/mL (≈ 2.8 µM)
- IC50 (Corynebact. acnes Leo FN; [11]): 0.79 µg/mL (≈ 1.38 µM)
- IC50 [3, 12]: 0.63 µg/mL (≈ 1.1 µM)
- IC50 [4]: 1.6 µg/mL (≈ 2.8 µM)
- IC50 [5, 13]: 16 µg/mL (≈ 28 µM)

SMILES: CC(C)=CCCC(C(=O)O)C1=C2C[C@@H](O)[C@H]3[C@@]4(C)CC[C@@H](O)[C@@H](C)[C@@H]4CC[C@]3(C)[C@@]2(C)C[C@@H]1SC(C)C (stereo partly drawn) [Example 31C, 3α,11α-dihydroxy-16β-isopropylthiofusida-13(17),24-dien-21-oic acid]
- Concentration required for 50% inhibition (IC50) ([1]; Streptococcus sp. Leo EG2): 0.63 µg/mL
- Concentration required for 50% inhibition (IC50) (Staph. aureus Leo CJ145; Staph. aureus Leo CJ145): 4.0 µg/mL
- Concentration required for 50% inhibition (IC50) [2, 10]: 1.6 µg/mL
- Concentration required for 50% inhibition (IC50) (Corynebact. acnes Leo FN; Corynebact. acnes Leo FN): 0.63 µg/mL
- Concentration required for 50% inhibition (IC50) ([3]; Streptococcus pyogenes Leo EC): 0.5 µg/mL
- Concentration required for 50% inhibition (IC50) ([5]; Bacteroides fragilis Leo JA2): 6.3 µg/mL

SMILES: CC(C)=CCCC(C(=O)O)C1=C2C[C@@H](O)[C@H]3[C@@]4(C)CC[C@@H](O)[C@@H](C)[C@@H]4CC[C@]3(C)[C@@]2(C)C[C@@H]1SC(C)C (stereo partly drawn) [Example 27, 3α,11α-Dihydroxy-16β-isopropylthiofusida-13(17), 24-dien-21-oic acid]
- IC50 [1, 14]: 1 µg/mL (≈ 1.88 µM)
- IC50 (Staph. aureus Leo CJ145; LEOCJ145, read-out: Concentration required for 50% inhibition (IC50), Staph. aureus Leo CJ145): 4 µg/mL (≈ 7.51 µM)
- IC50 ([2]; Staphylococcus aureus): 1.6 µg/mL (≈ 3 µM)
- Concentration required for 50% inhibition (IC50) (Corynebact. acnes Leo FN; Corynebact. acnes Leo FN): 0.63 µg/mL
- IC50 [3, 15]: 0.63 µg/mL (≈ 1.18 µM)
- IC50 [4]: 1.6 µg/mL (≈ 3 µM)
- IC50 [5, 16]: 10 µg/mL (≈ 18.8 µM)

SMILES: C=CCS[C@H]1C[C@@]2(C)C(=C1C(CCC=C(C)C)C(=O)O)C[C@@H](O)[C@H]1[C@@]3(C)CC[C@@H](O)[C@@H](C)[C@@H]3CC[C@@]12C (stereo partly shown) [Example 14]
- IC50 [1, 8]: 1.6 µg/mL (≈ 3.01 µM)
- IC50 (Staph. aureus Leo CJ145; [9]): 5 µg/mL (≈ 9.42 µM)
- IC50 [2, 10]: 1.6 µg/mL (≈ 3.01 µM)
- IC50 (Corynebact. acnes Leo FN; [11]): 1.6 µg/mL (≈ 3.01 µM)
- IC50 [3, 12]: 0.32 µg/mL (≈ 0.603 µM)
- IC50 [4]: 1.6 µg/mL (≈ 3.01 µM)
- IC50 [5, 13]: 4 µg/mL (≈ 7.54 µM)

SMILES: CCS[C@H]1C[C@@]2(C)C(=C1C(CCC=C(C)C)C(=O)O)C[C@@H](O)[C@H]1[C@@]3(C)CC[C@@H](O)[C@@H](C)[C@@H]3CC[C@@]12C (stereo partly drawn) [Example 11, 3α,11α-dihydroxy-16β-ethylthiofusida-13(17),24-dien-21-oic acid sodium salt]
- IC50 ([1]; Streptococcus, read-out: Concentration required for 50% inhibition (IC50)): 1.6 µg/mL
- IC50 (Staph. aureus Leo CJ145; LEOCJ145, read-out: Concentration required for 50% inhibition (IC50)): 3.2 µg/mL
- IC50 ([2]; Staphylococcus aureus): 2.7 µg/mL
- IC50 (Corynebact. acnes Leo FN; read-out: Concentration required for 50% inhibition (IC50)): 2 µg/mL
- IC50 ([3]; Streptococcus pyogenes, read-out: Concentration required for 50% inhibition (IC50)): 1.6 µg/mL
- IC50 [6, 17]: 2 µg/mL
- IC50 [6, 18]: 7.4 µg/mL
- IC50 [6, 19]: 7.4 µg/mL
- IC50 [6, 20]: 13.5 µg/mL
- IC50 [6, 21]: 10 µg/mL
- IC50 [6, 22]: 32 µg/mL
- IC50 ([6]; read-out: IC50 before transfer): 2.7 µg/mL
- Decrease of sensitivity after the 6th transfer ([6]; fusidic acid sensitive strain): 12 fold
- IC50 [7, 17]: 2.3 µg/mL
- IC50 [7, 18]: 3.8 µg/mL
- IC50 [7, 19]: 4.3 µg/mL
- IC50 [7, 20]: 4.2 µg/mL
- IC50 [7, 21]: 4 µg/mL
- IC50 [7, 22]: 4 µg/mL
- IC50 ([7]; read-out: IC50 before transfer): 2.7 µg/mL
- Change in sensitivity after transfers ([7]; fusidic acid resistant strain): hardly shows any change in sensitivity
- IC50 [4]: 3.2 µg/mL
- IC50 ([5]; Bacteroides fragilis, LEOJA2, read-out: Concentration required for 50% inhibition (IC50)): 2 µg/mL

SMILES: CC(C)CCCC(C(=O)O)C1=C2C[C@@H](O)[C@H]3[C@@]4(C)CC[C@@H](O)[C@@H](C)[C@@H]4CC[C@]3(C)[C@@]2(C)C[C@@H]1Sc1ccccc1 (stereo partly drawn) [Example 8, 3α,11α-Dihydroxy-16β-phenylthiofusida-13(17)-en-21-oic acid, sodium salt]
- IC50 [1, 8]: 0.5 µg/mL
- IC50 [2, 10]: 2 µg/mL
- IC50 (Corynebact. acnes Leo FN; [11]): 1.6 µg/mL
- IC50 [3, 12]: 0.5 µg/mL
- IC50 [4]: 2.5 µg/mL
- IC50 [5, 13]: > 100 µg/mL

SMILES: CC(C)CCCC(C(=O)O)C1=C2C[C@@H](O)[C@H]3[C@@]4(C)CC[C@@H](O)[C@@H](C)[C@@H]4CC[C@]3(C)[C@@]2(C)C[C@@H]1SC(C)C (stereo partly drawn) [Example 26, 3α,11α-Dihydroxy-16β-isopropylthiofusida-13(17)-en-21-oic acid sodium salt]
- IC50 [1, 14]: 0.5 µg/mL
- IC50 ([2]; Staphylococcus aureus): 1.6 µg/mL
- IC50 (Corynebact. acnes Leo FN; read-out: Concentration required for 50% inhibition (IC50), Corynebact. acnes Leo FN): 0.5 µg/mL
- IC50 [3, 15]: 0.5 µg/mL
- IC50 [4]: 1.6 µg/mL
- IC50 [5, 16]: 20 µg/mL

SMILES: CC(C)=CCCC(C(=O)O)C1=C2C[C@@H](O)[C@H]3[C@@]4(C)CC[C@@H](O)[C@@H](C)[C@@H]4CC[C@]3(C)[C@@]2(C)C[C@@H]1Sc1ccc(Br)cc1 (stereo partly drawn) [Example 2, 3α,11α-dihydroxy-16β--(4'-bromophenylthio)fusida-13(17),24-dien-21-oic acid sodium salt]
- IC50 [1, 8]: 0.5 µg/mL
- IC50 (Staph. aureus Leo CJ145; [9]): 100 µg/mL
- IC50 [2, 10]: 6.3 µg/mL
- IC50 (Corynebact. acnes Leo FN; [11]): 0.63 µg/mL
- IC50 [3, 12]: 0.2 µg/mL
- IC50 [4]: 10 µg/mL
- IC50 [5, 13]: 13 µg/mL
